From patent US10226451B2, “Substituted bicyclic compounds as bromodomain inhibitors” (ZENITH EPIGENETICS LTD, priority 2013, dated 2019)

Legend:
[1] = system: c-myc in Human AML MV4-11 cells; experiment: Inhibition of c-MYC expression (mRNA, real-time PCR) in MV4-11 cells; format: cell-based; details: 3 h, mRNA by real-time PCR
Procedure, shortened: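 Cells at 2.5×10^4 per well in IMDM/10% FBS were treated with rising compound concentrations or 0.1% DMSO for 3 h at 37° C., in triplicate. cMYC mRNA was measured by one-step TaqMan qRT-PCR, normalised to cyclophilin, and expressed as fold expression relative to control.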

[2] = system: Human AML MV-4-11 cells; experiment: Inhibition of cell proliferation in MV4-11 cells (CellTiter Aqueous One); format: cell-based; details: 72 h
Procedure, shortened: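 MV4-11 cells at 5×10^4/well in IMDM with 10% FBS were exposed to increasing compound concentrations or 0.1% DMSO, in triplicate, for 72 h at 37 °C. A further 3-4 h with CellTiter Aqueous One reagent followed. A490, blank-corrected and expressed relative to DMSO, gave IC50.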

[3] = system: hIL-6 mRNA in U937 cells; experiment: Inhibition of hIL-6 mRNA transcription in LPS-stimulated U937 cells; format: cell-based; details: Homo sapiens, U-937, PMA-differentiated U937 cells, LPS 1 ug/mL, 3 h, read-out: IL-6 activity
Procedure, shortened: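 U937 cells were differentiated to macrophages with 60 ng/mL PMA for 3 days, pretreated 1 h with compound in 0.1% DMSO, then stimulated with 1 ug/mL E. coli LPS for 3 h at 37° C. hIL-6 mRNA was quantified by one-step TaqMan RT-qPCR, normalized to cyclophilin, as fold expression versus control.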

[4] = system: MV4-11 cells xenograft; experiment: In vivo efficacy, acute myeloid leukemia xenograft model using MV4-11 cells; set-up: species or system mouse; details: MV4-11 xenograft, nu/nu mice, oral dosing, tumor growth inhibition
Method: MV4-11 cells (ATCC) were grown under standard cell culture conditions and (NCr) nu/nu fisol strain of female mice age 6-7 weeks were injected with 5×10^6 cells/animal in 100 μL PBS+100 μL Matrigel in the lower left abdominal flank. By approximately day 18-21 after MV4-11 cells injection, mice were randomized based on tumor volume (L×W×H)/2) of average ˜100-300 mm^3. Mice were dosed orally with compound at 5 to 120 mg/kg b.i.d and/or q.d. on a continuous dosing schedule and at 2.5 to 85 mg/kg q.d. on a 5 day on 2 day off, 100 mg/kg q.d. on a 4 day on and 3 day off, 135 mg/kg q.d. on a 3 day on and 4 day off, 180 mg/kg on a 2 day on and 5 day off and 240 mg/kg on a 1 day on and 6 days off dosing schedules in EA006 formulation at 10 mL/kg body weight dose volume. Tumor measurements were taken with electronic micro calipers and body weights measured on alternate days beginning from dosing period. The average tumor volumes, percent Tumor Growth Inhibition (TGI) and % change in body weights were compared relative to Vehicle control animals. The means, statistical analysis and the comparison between groups were calculated using Student's t-test in Excel.

[5] = system: OCI-3 AML cells xenograft; experiment: In vivo efficacy, acute myeloid leukemia xenograft model using OCI-3 AML cells; set-up: species or system mouse; details: OCI-3 AML xenograft, nu/nu mice, oral dosing, tumor growth inhibition
Method: OCI-3 AML cells (DMSZ) were grown under standard cell culture conditions and (NCr) nu/nu fisol strain of female mice age 6-7 weeks were injected with 10×10^6 cells/animal in 100 μL PBS+100 μL Matrigel in the lower left abdominal flank. By approximately day 18-21 after OCI-3 AML cells injection, mice were randomized based on tumor volume (L×W×H)/2) of average ˜100-300 mm^3. Mice were dosed orally with compound at 30 mg/kg b.i.d on a continuous dosing schedule and at 2.5 to 45 mg/kg q.d. on a 5 day on and 2 day off dosing schedule in EA006 formulation at 10 mL/kg body weight dose volume. Tumor measurements were taken with electronic micro calipers and body weights measured on alternate days beginning from dosing period. The average tumor volumes, percent Tumor Growth Inhibition (TGI) and % change in body weights were compared relative to Vehicle control animals. The means, statistical analysis and the comparison between groups were calculated using Student's t-test in Excel.

IC50 [1]: ≤ 300 nM
IC50 [2]: ≤ 300 nM
IC50 [3]: ≤ 300 nM
SMILES: Cc1noc(C)c1-c1cc(-c2c(C)nn(C)c2C)c2c(c1)[nH]c(=O)n2C [Example Compound 9, 5-(3,5-dimethylisoxazol-4-yl)-1-methyl-7-(1,3,5-trimethyl-1H-pyrazol-4-yl)-1H-benzo[d]imidazol-2(3H)-one]
In vivo activity [4]: Active
In vivo activity [5]: Active
